The values below come from patent publication US20110021542A1, “Use of a Combination of Udenafil and Alfuzosin or Oxybutynin for the Treatment of Overactive Bladder” (PELVIPHARM, priority 2008, published 2011).

The assay has as its system carbachol precontracted human bladder strips. Description: Relaxation of carbachol-precontracted human detrusor strips. It is filed as tissue-based. The conditions noted are these: carbachol 10^-6 M precontraction; cumulative 10^-9 to 3.10^-5 M; compared with tadalafil, sildenafil, vardenafil; FIG. 1. The procedure: The experiments, collection and use of any tissue or other samples were carried out in accordance with the Research Plan, all relevant laws, regulations and codes of practice, including having obtaining informed consent of patients in writing. Bladders were obtained from donors undergoing cystectomy for infiltrating bladder cancer with no known bladder dysfunction according to their medical chart. In accordance with French legislation, human tissue samples were obtained with patient informed consent and after hepatitis and HIV serologies determination. After surgical procedure, bladder samples were immediately transported from the operating room to the pathologist facilities where a normal piece of the bladder dome, i.e. with no macroscopic tumoral tissue, was selected for experiments by the pathologist. […] The strips were connected to force transducers (Pioden Controls Ltd, UK) and following amplification, the tension changes were recorded via MacLab™/8 using Chart™ 5 software (AD Instruments Ltd). […] For the evaluation of the effect of drugs to inhibit carbachol-induced contractions, relaxations in response to increasing and cumulative concentrations of PDE5 inhibitors or oxybutynin or corresponding concentrations of vehicle are expressed as the percentage of inhibition of the contractile response to carbachol. […]

For the compound `CCCOc1ccc(S(=O)(=O)NCCC2CCCN2C)cc1-c1nc2c(CCC)nn(C)c2c(=O)[nH]1` (stereo not shown) [Udenafil, 5-[2-propyloxy-5-(1-methyl-2-pyrrolidinylethylamidosulfonyl)phenyl]-methyl-3-propyl-1,6-dihydro-7H-pyrazolo(4,3-d)pyrimidine-7-one], the “inhibitory effect to relax carbachol-induced contractions of human bladder strips” value is given as “greater inhibitory effect than the other PDE-5 inhibitors tested”.
